{"source": "patent US20130089907A1", "about": "“HYDROGEN PRODUCTION METHOD USING ALCOHOL AND PHOTOSYNTHETIC BACTERIA” (priority 2010, published 2013)", "key": {"[1]": {"system": "R. sphaeroides", "test": "Hydrogen production by R. sphaeroides under photosynthetic condition in the presence of alcohol (GC of gas phase)", "format": "cell-based, Rhodobacter sphaeroides", "conditions": "for efficiency of hydrogen production: 10 Watts/m^2, 30° C., anaerobic", "method": "For the hydrogen production, R. sphaeroides 2.4.1(ATCC BAA-808, Cohen-Bazire et al. 1956. J. Cell. Comp. Physiol. 49: 25-68) or R. sphaeroides KCTC 12085 were used. To grow the cells, basically Sistrom minimal medium [20 mM KH2PO4, 3.8 mM (NH4)2SO4, 34 mM succinate, 0.59 mM L-glutamate, 0.30 mM L-aspartate, 8.5 mM NaCl, 1.05 mM nitrilotriacetic acid, 1.2 mM MgCl26H2O, 0.23 mM CaCl27H2O, 25 µM FeSO47H2O, 0.16 M (NH4)6Mo7O244H2O, 4.7 M EDTA, 38 M ZnSO47H2O, 9.1 M MnSO4H2O, 1.6 M CuSO45H2O, 0.85 M Co(NO3)26H2O (II), 1.8 M H3BO3, 8.1 M Nicotinic acid, 1.5 M Thiamine HCl, 41 nM biotin (Sistrom, W. R, 1962. J. Gen. Microbiol. 28: 607-616)] were used with the following modifications. To optimize the activity of nitrogenase, Ammonium molybdate was replaced with the same amount of Sodium molybdate, or 7 mM of L-glutamate was used instead of ammonium sulfate, or succinate was replaced with 30 mM malate. To investigate the effect of ammonium, 2 mM Ammonium chloride was added.\nR. sphaeroides was inoculated at the concentration of 10^8 CFU/ml in 10 ml of Sistrom minimal medium and incubated for 120 hrs. to test the hydrogen production at the following condition: 10 Watts/m^2, 30° C., anaerobic. To measure the hydrogen produced, the cells were incubated in a serum vial which was air tight. Before use the air in the vial was replaced with argon gas to remove oxygen. During the reaction, an aliquot of gas in the gas phase was sampled from the vial using the gas-tight syringe, which was further analyzed by a Gas Chromatography (GC, Shimadzu, Japan).\n(§1) Each strain was inoculated to the medium as described above at 10^8 CFU/ml and incubated for 120 hours under the following condition: 10 Watts/m^2 of light, 30° C., and anaerobic condition and the amount of hydrogen produced was tested. The ethanol was added at 0.2 vol % and the cell growth, and hydrogen production and analysis were performed as described in Example 1.\nTo determine the optimal concentration and time of the alcohol added, the accumulated amount of hydrogen produced was measured in R. sphaeroides in the presence of varying amounts of ethanol from 0.01 vol % to 2 vol % (volume/volume %) by incubating them under the same condition as described in Example 1.\nIn addition to ethanol, other alcohols, that is, methanol (CH3OH), propanol (CH3CH2CH2OH), isopropanol [(CH3)2CHOH], butanol [CH3(CH2)2CH2OH], isoamyl alcohol, [(CH3)2CHCH2CH2OH] were tested. Under the same condition as used in Example 1, each alcohol was added to the cells at the concentration of 0.1%, 0.2%, 0.5%, or 1.0%."}, "[2]": {"system": "R. sphaeroides", "method": "The wild type R. sphaeroides cells were grown under 10 Watts/m^2 of light as described in Example 1 and tested for the production of hydrogen.\nThe hydrogen produced was analyzed as described in Example 1."}, "[3]": {"system": "Rhodobacter capsulatus SB1003", "conditions": "R. capsulatus; ethanol 0.2 vol %; modified Sistrom medium depleted with ammonium ion; 120 hours", "method": "Rhodobacter capsulatus SB1003 and Rhodospirillum rubrum UR1 selected for the experiment due to their well characterization. For the growth of R. capsulatus, a modified Sistrom medium depleted with ammonium ion was used; and for the growth of R. rubrum, MG minimal medium was used as described in Lehman and Roberts. 1991. J. Bacteriol. 173: 5705-5711.\nas §1"}, "[4]": {"system": "nitrogenase", "method": "The activity of nitrogenase was measured by the rate of ethylene (C2H4) produced using the acetylene (C2H2) as a substrate. The nitrogenase has an ability to produce hydrogen and ethylene by reducing proton (H+) and acetylene in addition to using N2 as substrate (Kern et al. 1992. Appl. Microbiol. Biotechnol. 37: 496-500). The activity of the nitrogenase was measured by incubating R. sphaeroides under the photosynthetic condition of 10 Watts/m^2 of light. 10 ml of the bacteria (10^8 CFU/ml) was placed in a serum vial (65 ml) and incubated under the light until the KU (Klett Unit) reached 150 to 200. To prevent the de novo protein synthesis during the incubation period, chloramphenicol was used at 50 μg/ml and the air in the vial was replaced with argon before use. Acetylene was injected into the vial to occupy 10% of the entire air phase using a gas-tight syringe. The cells were first incubated for 10 min without light and the reaction started under the 10 Watts/m^2 light. The amount of ethylene produced was measured by withdrawing an aliquot of the gas in the gas phase using a gas-tight syringe and by subject them to GC analysis."}, "[5]": {"conditions": "concentration not stated (tested at 0.1%, 0.2%, 0.5%, or 1.0%)"}}, "note": "“And” between values parts separate entries of the source, which are not always exact repeats. Equal entries are not always repeated. Where two headings read alike, the source gives them in different places.", "data": [{"compound": "CO", "note": "[Methanol, methanol]", "values": [{"measurement": "hydrogen production", "setting": "[1]; alcohol at 0.1%, 0.2%, and 0.5%", "result": "increased"}, {"measurement": "cell growth", "setting": "[1]; alcohol at 1.0%", "result": "inhibit the cell growth"}, {"measurement": "concentration with the highest effect on hydrogen production", "setting": "[1]; tested at 0.1%, 0.2%, 0.5%, or 1.0%", "result": 0.2, "unit": "%"}]}, {"compound": "butanol", "values": [{"measurement": "concentration with the highest effect on hydrogen production", "setting": "[1]", "result": 0.2, "unit": "%"}, {"measurement": "hydrogen production", "setting": "[1]", "result": "increased"}]}, {"compound": "CC(C)CCO", "note": "[isoamyl alcohol]", "values": [{"measurement": "hydrogen production", "setting": "[1]; [5]", "result": "decrease the hydrogen production"}]}, {"compound": "CCCO", "note": "[propanol]", "values": [{"measurement": "concentration with the highest effect on hydrogen production", "setting": "[1]", "result": 0.5, "unit": "%"}, {"measurement": "hydrogen production", "setting": "[1]", "result": "increased"}]}, {"compound": "CCO", "note": "[ethanol]", "values": [{"measurement": "hydrogen gas producing ability remained in 2 mM ammonium ion compared to 0 mM ammonium ion", "setting": "[2]; 0.2% ethanol, modified medium, FIG. 4", "result": "not less than 80%"}, {"measurement": "nitrogenase activity remained in the presence of ammonium ion", "setting": "[2]; after the addition of ethanol", "result": "more than 80%"}, {"measurement": "fold increase (hydrogen produced in the presence of alcohol/in the absence of alcohol)", "setting": "[3]", "result": "1.5 fold and 1.53 fold"}, {"measurement": "activity of nitrogenase, times higher than the control", "setting": "[4]; 0.2 vol % ethanol vs control without ethanol", "result": 4, "unit": "times"}, {"measurement": "activity of nitrogenase", "setting": "[4]; 0.2 vol % of EtOH, 10 Watts/m^2 light", "result": 18.2, "unit": "nmole KU^−1 h^−1"}, {"measurement": "growth of cells", "setting": "[1]; 2% ethanol", "result": "inhibited the growth"}, {"measurement": "hydrogen produced", "setting": "[1]; 2% ethanol", "result": "very much decreased"}, {"measurement": "fold increase (hydrogen produced in the presence of alcohol/in the absence of alcohol)", "setting": "[1]; R. sphaeroides, ethanol 0.2 vol %, 120 hours", "result": 2.21, "unit": "fold"}, {"measurement": "growth of bacteria", "setting": "[1]; ethanol 0.1 vol % and 0.5 vol %, Sistrom medium containing ammonium ion", "result": "not affected"}, {"measurement": "hydrogen production, times higher than the control", "setting": "[1]; ethanol 0.1 vol % or 0.5 vol % vs control without ethanol", "result": 10, "unit": "times"}, {"measurement": "efficiency of hydrogen production", "setting": "[1]; ethanol 0.1 vol %, Sistrom medium containing ammonium ion", "result": 5.04, "unit": "mole H2/mole succinate"}, {"measurement": "effect on hydrogen production by time of addition", "setting": "[1]; ethanol 0.5 vol % added with inoculation (10 KU) or at 100 KU compared to addition at 300 KU, FIG. 5", "result": "higher increasing effect on the hydrogen production"}, {"measurement": "efficiency of hydrogen production", "setting": "[1]; ethanol 0.5 vol %, Sistrom medium containing ammonium ion", "result": 5.72, "unit": "mole H2/mole succinate"}, {"measurement": "accumulated hydrogen production, wild type strain", "setting": "[1]; ethanol 0.5 vol %, Sistrom medium containing ammonium ion, FIG. 3", "result": "increased hydrogen production"}, {"measurement": "hydrogen production", "setting": "[1]; ethanol less than 0.05%", "result": "not shown to increase"}]}, {"compound": "CC(C)O", "note": "[isopropanol]", "values": [{"measurement": "increase of hydrogen production", "setting": "[1]; [5]", "result": "about 35%"}]}]}
